Reference: patent US20250084058A1, “PHENYLPYRAZOLE COMPOUND AND APPLICATION THEREOF” (priority 2022, published 2025)
Like-named read-outs stand apart in the source and are kept apart here.

How the values were obtained:
Type in all cases: in vivo
[1] = tested on: Mythimna separata; assay: Activity determination of killing Mythimna separata (Airbrush spray, corn leaf segments); settings: foliar, dose 1.25 mg/L, 3rd instar larvae, 3rd day after administration, read-out: mortality against Mythimna separata
Protocol: (§1) The compounds to be tested were dissolved in a mixed solvent of acetone/methanol (1:1) and then diluted to desired concentrations with water containing 0.1% (wt) Tween 80.
(§2) With Mythimna separata and Plutella xylostella as targets, the activity was determined by Airbrush spray method.
Determination method: Corn leaves were cut into leaf segments with the length of 2 cm, the pressure of Airbrush spray treatment is 10 psi (about 0.7 kg/cm^2), and the compounds to be tested were sprayed onto the front and back surfaces of each leaf segment at a liquid amount of 0.5 mL. After drying in the shade, 10 3rd instar larvae were inoculated to each treatment, and each treatment was repeated for 3 times. After the treatment, the larvae were placed in an observation room for culture at 25° C. with relative humidity of 60-70%. On the 3rd day after administration, the number of surviving larvae was investigated, and the mortality was calculated.

[2] = tested on: Plutella xylostella; assay: Activity determination of killing Plutella xylostella (Airbrush spray, cabbage leaf discs); settings: foliar, 3rd day after administration; for mortality at 0.3125 µg/mL: 0.3125 mg/L, read-out: Mortality (%, on 3rd day after administration) 0.3125 mg/L; for mortality at 0.625 µg/mL: 0.625 mg/L, read-out: Mortality (%, on 3rd day after administration) 0.625 mg/L
Protocol: as §1, §2
Determination method: Cabbage leaves were punched into leaf discs with the diameter of 2 cm by a puncher, the pressure of Airbrush spray treatment is 10 psi (about 0.7 kg/cm^2), and the compounds to be tested were sprayed onto the front and back surfaces of each leaf disc at a liquid amount of 0.5 mL. After drying in the shade, 10 3rd instar larvae were inoculated to each treatment, and each treatment was repeated for 3 times. After the treatment, the larvae were placed in an observation room for culture at 25° C. with relative humidity of 60-70%. On 3rd day after administration, the number of surviving larvae was investigated, and the mortality was calculated.
Some compounds of the present disclosure and control compounds were selected to carry out parallel comparative experiments of the insecticidal activity against Plutella xylostella (on 3rd day after administration), and the determination method was the same as above.

[3] = tested on: Tetranychus cinnabarinus; assay: Greenhouse acaricidal activity on adult acarids of Tetranychus cinnabarinus (spraying of Phaseolus vulgaris seedlings); settings: dose 1.25 mg/L, after 72 h, read-out: mortality against adult acarids of Tetranychus cinnabarinus
Protocol: According to the solubility of the compounds to be tested, the compounds to be tested were dissolved in acetone or dimethyl sulfoxide and prepared into 50 mL of solutions to be tested at desired concentrations with a 0.1% Tween 80 solution, where the content of the acetone or dimethyl sulfoxide in the solutions was not higher than 10%.
Two true leaves of Phaseolus vulgaris seedlings were taken, and 30-40 adult acarids of Tetranychus cinnabarinus were inoculated. After the cardinal number was investigated, the whole plants were subjected to spraying treatment with a hand-held sprayer, each treatment was repeated for 3 times, and the plants were placed in a standard observation room after the treatment. The number of surviving acarids was investigated after 72 h, and the mortality was calculated.

[4] = tested on: Ctenocephalides felis; assay: Insecticidal test on Ctenocephalides felis (compound film in culture dish); settings: 1 μg/cm^2; adult Ctenocephalides felis; after 72 h; 25° C.; read-out: insect mortality (Ctenocephalides felis)
Protocol: 4 mg of compounds to be tested were dissolved in 40 mL of acetone to obtain acetone solutions with a concentration of 100 mg/L. Bottom surfaces and side surfaces of culture dishes with an inner diameter of 5.3 cm were coated with 400 μL of the drug solutions, and when the acetone was volatilized, films of the compounds of the present disclosure were prepared on inner walls of the culture dishes. The inner walls of the culture dishes used were 40 cm^2, and a dose of the treatment drugs was 1 μg/cm^2. 10 adult Ctenocephalides felis (males and females were mixed) were placed in the culture dishes, and the culture dishes were covered and then stored in a constant-temperature room at 25° C. The number of dead insects was checked after 72 h, and the insect mortality was calculated. The test was repeated for 3 times. Test results: The insect mortality of compounds 1, 2, 3, 4, 5, 11, 12, 18, 32, 33, 34, 46, 60, 74, 88, 99, 101, 102, 104, 105, 108, 109, 110, 111, 113 and 114 is 70% or above.

[5] = tested on: Dermacentor variabilis; assay: Insecticidal test on Dermacentor variabilis (compound film in culture dish); settings: 1 μg/cm^2, 1st nymphs, after 24 h, 25° C., read-out: insect mortality (Dermacentor variabilis)
Protocol: 4 mg of compounds to be tested were dissolved in 40 mL of acetone to obtain acetone solutions with a concentration of 100 mg/L. Bottom surfaces and side surfaces of 2 culture dishes with an inner diameter of 5.3 cm were coated with 400 μL of the drug solutions, and when the acetone was volatilized, films of the compounds of the present disclosure were prepared on inner walls of the culture dishes. The inner walls of the culture dishes used were 40 cm^2, and a dose of the treatment drugs was 1 μg/cm^2. 10 1st nymphs of Dermacentor variabilis (males and females were mixed) were placed in the culture dishes. The 2 culture dishes were combined, sealed with tape at a junction portion to prevent escape of the nymphs, and then stored in a constant-temperature room at 25° C. The number of dead insects was checked after 24 h, and the insect mortality was calculated. The test was repeated for 3 times. Test results: The insect mortality of compounds 1, 2, 3, 4, 5, 11, 12, 18, 32, 33, 34, 46, 60, 74, 88, 99, 101, 102, 104, 105, 108, 109, 110, 111, 113 and 114 is 70% or above.

[6] = parallel comparative experiment
[7] = 1.25 mg/L, parallel comparative experiment, read-out: Mortality (%, on 3rd day after administration) 1.25 mg/L
[8] = dose 1.25 mg/L, 3rd instar larvae, read-out: mortality against Plutella xylostella

Compound | mortality at 1.25 µg/mL [1] [%] | mortality at 0.3125 µg/mL [2, 6] [%] | mortality at 0.625 µg/mL [2, 6] [%] | mortality at 1.25 µg/mL [2, 7] [%] | mortality at 1.25 µg/mL [2, 8] [%] | mortality at 1.25 µg/mL [3] [%] | mortality at 1 µg/cm2 [4] [%] | mortality at 1 µg/cm2 [5] [%]
N#CCCN(C(=O)c1cc(-c2cnn(-c3c(Cl)cc(C(F)(C(F)(F)F)C(F)(F)F)cc3Cl)c2)cnc1Cl)C1CC1 [Compound 5] | ≥ 90 | 100 | 100 | 100 | ≥ 90 | ≥ 90 | ≥ 70 | ≥ 70
C=CCN(C(=O)c1cc(-c2cnn(-c3c(Cl)cc(C(F)(C(F)(F)F)C(F)(F)F)cc3Cl)c2)cnc1Cl)C1CC1 [Compound 1] | ≥ 90 | 93.3 | 100 | 100 | ≥ 90 | ≥ 90 | ≥ 70 | ≥ 70
CCCC(=O)N(C(=O)c1cc(-c2cnn(-c3c(Cl)cc(C(F)(C(F)(F)F)C(F)(F)F)cc3Cl)c2)cnc1Cl)C1(C#N)CC1 [Compound 110] | ≥ 90 |  |  |  | ≥ 90 | ≥ 90 | ≥ 70 | ≥ 70
N#CCN(C(=O)c1cc(-c2cnn(-c3c(Cl)cc(C(F)(C(F)(F)F)C(F)(F)F)cc3C(F)(F)F)c2)cnc1Cl)C1CC1 [Compound 60] | ≥ 90 |  |  |  | ≥ 90 | ≥ 90 | ≥ 70 | ≥ 70
O=C(c1cc(-c2cnn(-c3c(Cl)cc(C(F)(C(F)(F)F)C(F)(F)F)cc3Cl)c2)cnc1Cl)N(C(=O)C1CC1)C1CC1 [Compound 104] | ≥ 90 | 100 | 100 | 100 | ≥ 90 | ≥ 90 | ≥ 70 | ≥ 70
C#CCN(C(=O)c1cc(-c2cnn(-c3c(Cl)cc(C(F)(C(F)(F)F)C(F)(F)F)cc3Cl)c2)cnc1Cl)C1CC1 [Compound 2] | ≥ 90 | 90 | 100 | 100 | ≥ 90 | ≥ 90 | ≥ 70 | ≥ 70
N#CCN(C(=O)c1cc(-c2cnn(-c3c(Cl)cc(C(F)(C(F)(F)F)C(F)(F)F)cc3Cl)c2)cnc1Cl)C1(C#N)CC1 [Compound 11] | ≥ 90 | 100 | 100 | 100 | ≥ 90 | ≥ 90 | ≥ 70 | ≥ 70
CC(C)C(=O)N(C(=O)c1cc(-c2cnn(-c3c(Cl)cc(C(F)(C(F)(F)F)C(F)(F)F)cc3Cl)c2)cnc1Cl)C1CC1 [Compound 102] | ≥ 90 |  |  |  | ≥ 90 | ≥ 90 | ≥ 70 | ≥ 70
N#CCN(C(=O)c1cc(-c2cnn(-c3c(Br)cc(C(F)(C(F)(F)F)C(F)(F)F)cc3Br)c2)cnc1Cl)C1CC1 [Compound 18] | ≥ 90 |  |  |  | ≥ 90 | ≥ 90 | ≥ 70 | ≥ 70
CC(=O)N(C(=O)c1cc(-c2cnn(-c3c(Cl)cc(C(F)(C(F)(F)F)C(F)(F)F)cc3Cl)c2)cnc1Cl)C1(C#N)CC1 [Compound 108] | ≥ 90 | 100 | 100 | 100 | ≥ 90 | ≥ 90 | ≥ 70 | ≥ 70
N#CCN(C(=O)c1cc(-c2cnn(-c3c(Cl)cc(C(F)(C(F)(F)F)C(F)(F)F)cc3Cl)c2)cnc1Cl)C1CC1 [Compound 4] | ≥ 90 | 100 | 100 | 100 | ≥ 90 | ≥ 90 | ≥ 70 | ≥ 70
N#CCN(C(=O)c1cc(-c2cnn(-c3c(Br)cc(C(F)(C(F)(F)F)C(F)(F)F)cc3C(F)(F)F)c2)cnc1Cl)C1CC1 [Compound 46] | ≥ 90 |  |  |  | ≥ 90 | ≥ 90 | ≥ 70 | ≥ 70
